{"source": "patent US9334300B2", "about": "“Vitamin B6 derivatives of nucleotides, acyclonucleotides and acyclonucleoside phosphonates” (MBC PHARMA, INC., priority 2011, dated 2016)", "key": {"22Rv1 cells [1]": {"test_system": "22Rv1 cells", "test": "MTS proliferation assay, 22Rv1 prostate cancer cells", "format": "cell-based", "protocol": "(§1) In a 96-well plate, each well was prepared to contain 50 uL of 50,000 cells in media (HyClone IMDM Modified+4 mM L-Glu, HEPES with 10% Fetal Bovine Serum) to which was added 50 uL media containing either the free nucleoside (cytarabine or gemcitabine) or the conjugate (compound 3 or 16) that achieved the following final concentrations: 0, 0.1, 0.2, 0.5, 1, 3, 10, or 100 uM. The cells were incubated at 37° C. with 5% CO2 for 24, 48 or 72 hours (data trends similarly for all incubation periods while the 48 hour data is shown). The Promega MTS based proliferation assay kit (Promega; CellTiter 96® AQueous Non-Radioactive Cell Proliferation Assay (MTS)) was used as per manufacturer's instructions. In short, to each well 100 uL of MTS/PMS reagent was added and allowed to incubate for approximately 2 hours at 37° C. to achieve a colorimetric indication of active cell metabolism. This was quantitated by reading the visible absorption at 415 nm. The data (FIG. 1) was normalized to the absorption range defined from minimal absorbance (media absent cells and drug present), to maximum absorbance (media with cells in the absence of drug). All points were measured in triplicate and averaged before normalization to a 0-100% range. Data was plotted (FIG. 1) as percent inhibition versus log of the compound concentration. Where sigmodial curve fitting was possible, a four-parameter logistic non-linear regression model equation was used to generate the curves and IC50 values. […] The pulse chase experiments shown in FIG. 2 were done as described above with the one alteration that at either the 10 or 60 time point after addition of drug the media was replaced with drug-free media and the cells were allowed to continue incubation for a total of 48 hours. […] Data points were collected in quintuplicate; error bars show standard deviations. […] Sigmodial curve fitting employed a four-parameter logistic non-linear regression model equation."}, "5TGM1 cells": {"test_system": "5TGM1 cells", "test": "MTS proliferation assay, multiple myeloma cell line", "format": "cell-based, rodent", "settings": "72 hours, FIG. 3", "protocol": "In a 96-well plate, each well was prepared to contain 50 uL of 50,000 5TGM1 cells in media (HyClone IMDM Modified+4 mM L-Glu, HEPES with 10% Fetal Bovine Serum) to which was added 50 uL media containing cytarabine or compound 3 (MU004-26) that achieved the following final concentrations: 0, 0.1, 0.2, 0.5, 1, 3, 10, or 100 uM. The cells were incubated at 37° C. with 5% CO2 for 24, 48 or 72 hours (data trends similarly for all incubation periods while the 72 hour data is shown). The Promega […] based proliferation assay kit was used as per manufacturer's instructions. In short, to each well 100 uL of MTS/PMS reagent was added and allowed to incubate for approximately 2 hours at 37° C. to achieve a colorimetric indication of active cell metabolism. This was quantitated by reading the visible absorption at 415 nm. The data (FIG. 3) was normalized to the absorption range defined from minimal absorbance—media absent cells and drug present, to maximum absorbance—media with cells in the absence of drug. All points were measured in triplicate and averaged before normalization to a 0-100% range. Data was plotted (FIG. 3) as percent inhibition versus log of the compound concentration. As the FIG. 3 illustrates the Cytarabine IC50=0.5 uM while the Conjugate IC50=1 uM."}, "[2]": {"test": "Conjugate stability in saline and growth media (HPLC)", "format": "physicochemical", "settings": "for stability in buffers and media: over the time course of experiments", "protocol": "The rapid release of nucleoside or nucleotide from the conjugate into the growth media appeared to be ruled out. To test for this event conjugate 3 was incubated in isotonic saline, sterile media or media that was conditioned by 3 days of cell growth. In conditioned media the cells were removed from the media by centrifugation and conjugate was added to the media and incubated at 37° C. for 0.25, 24 and 72 hours. Proteins and large molecules were removed via precipitation with a 5:4:1 v:v:v mixture of Acetonitrile:methanol:1% Formic acid and subsequent centrifugation. The supernatant (100 uL injection volume) was subjected to HPLC analysis on DNA Pac PA 200 (Dionex, USA) column in a gradient of 400 mM ammonium acetate in 20% acetonitrile (3-40% over 10 minutes)."}, "[3]": {"test_system": "pancreatic cell lines (Capan2, Panc1 and MiaPaca)", "test": "MTS proliferation assay, pancreatic cancer cell lines", "format": "cell-based", "settings": "48 hours, FIG. 1", "protocol": "(§2) In a 96-well plate, each well was prepared to contain 50 uL of 50,000 cells in media (HyClone IMDM Modified+4 mM L-Glu, HEPES with 10% Fetal Bovine Serum) to which was added 50 uL media containing either the free nucleoside (cytarabine or gemcitabine) or the conjugate (compound 3 or 16) that achieved the following final concentrations: 0, 0.1, 0.2, 0.5, 1, 3, 10, or 100 uM. The cells were incubated at 37° C. with 5% CO2 for 24, 48 or 72 hours (data trends similarly for all incubation periods while the 48 hour data is shown). The Promega MTS based proliferation assay kit (Promega; CellTiter 96® AQueous Non-Radioactive Cell Proliferation Assay (MTS)) was used as per manufacturer's instructions. In short, to each well 100 uL of MTS/PMS reagent was added and allowed to incubate for approximately 2 hours at 37° C. to achieve a colorimetric indication of active cell metabolism. This was quantitated by reading the visible absorption at 415 nm. The data (FIG. 1) was normalized to the absorption range defined from minimal absorbance (media absent cells and drug present), to maximum absorbance (media with cells in the absence of drug). All points were measured in triplicate and averaged before normalization to a 0-100% range. Data was plotted (FIG. 1) as percent inhibition versus log of the compound concentration. […]"}, "22Rv1 cells [4]": {"test_system": "22Rv1 cells", "test": "Pulse chase (10 or 60 minute exposure) MTS proliferation assay, 22Rv1", "format": "cell-based", "settings": "48 hours in fresh media", "protocol": "as §1\nThis was tested for with a 10 or 60 minute pulsed exposure of 22Rv1 cells to compounds, followed by 48 hours of incubation in fresh media. […]"}, "Capan2 cells": {"test_system": "Capan2 cells", "test": "Pulse chase (60 minute exposure) MTS proliferation assay, Capan2", "format": "cell-based, human", "settings": "60 minute pulse, all concentrations tested"}, "[5]": {"test_system": "subcutaneous Capan-2 tumors", "test": "Mouse xenograft model of pancreatic cancer", "format": "in vivo", "settings": "nude mice, Capan-2 subcutaneous, 20 mg/kg 3-times per week", "protocol": "FIG. 4 illustrates the conjugate of vitamin B6 and gemcitabine is efficacious in a mouse model of human pancreatic cancer. In this model, immune compromised nude mice were injected subcutaneously with the human pancreatic cell line Capan-2 (˜10^6 cells/100 ul). After tumor growth was detected the animals were randomized and either administered the isotonic saline vehicle control alone or with the gemcitabine conjugate (20 mg/kg; 3-times per week)."}, "PC3 prostate cancer line": {"test_system": "PC3 prostate cancer line", "test": "MTS proliferation assay, PC3 prostate cancer cells", "format": "cell-based", "settings": "48 hours, FIG. 1", "protocol": "as §2"}}, "data": [{"smiles": "Cc1ncc(CO)c(CN[P@SP3](=O)(O)OC[C@H]2O[C@@H](n3ccc(N)nc3=O)C(O)C2O)c1O", "note": "(stereo partly drawn) [Compound 3, 5′-aracytidilic acid N-pyridoxylamide]", "values": [{"measurement": "fold more potent than araC", "setting": "22Rv1 cells [1]; 48 hours, FIG. 1", "result": "> 10", "unit": "fold"}, {"measurement": "IC50", "setting": "5TGM1 cells", "result": 1, "unit": "µM"}, {"measurement": "release of free cytarabine or pyridoxamine (HPLC)", "setting": "[2]; isotonic saline, sterile media or conditioned media, 37° C., 0.25, 24 and 72 hours", "result": "neither free cytarabine nor free pyridoxamine (or any other pyridoxyl based compound) was detected"}, {"measurement": "stability in buffers and media", "setting": "[2]", "result": "stable"}]}, {"smiles": "Cc1ncc(CO)c(CNP(=O)(O)OC[C@H]2O[C@@H](n3ccc(N)nc3=O)C(F)(F)C2O)c1O", "note": "(stereo partly drawn) [Compound 16, N-pyridoxylamide of 2′-Deoxy-2′,2′-difluoro-5′-cytidylic acid]", "values": [{"measurement": "fold more potent than Gem alone", "setting": "[3]", "result": "2-100 fold"}, {"measurement": "fold more potent than Gem", "setting": "22Rv1 cells [1]; 48 hours, FIG. 1", "result": "up to 7 fold"}, {"measurement": "decrease of proliferation beyond that of free gemcitabine", "setting": "22Rv1 cells [4]; 100 uM pulse for 60 minutes", "result": 40, "unit": "%"}, {"measurement": "anti-proliferation after pulse", "setting": "22Rv1 cells [4]; 10 minute pulse", "result": "measurable anti-proliferation"}, {"measurement": "effect of pulse compared to free Gem", "setting": "Capan2 cells", "result": "more rapid effect"}, {"measurement": "stability in buffers and media", "setting": "[2]", "result": "stable"}, {"measurement": "tumor growth relative to untreated growth", "setting": "[5]", "result": "stabilized tumor growth"}]}, {"smiles": "Nc1ccn([C@@H]2O[C@H](CO)[C@@H](O)[C@@H]2O)c(=O)n1", "note": "[Cytarabine, reference compound]", "values": [{"measurement": "IC50", "setting": "5TGM1 cells", "result": 0.5, "unit": "µM"}]}, {"smiles": "Nc1ccn([C@@H]2O[C@H](CO)[C@@H](O)C2(F)F)c(=O)n1", "note": "[Gemcitabine, 2′-Deoxy-2′,2′-difluorocytidine, reference compound]", "values": [{"measurement": "effect on proliferation", "setting": "22Rv1 cells [1]; 48 hour exposure, 0.1-10 uM", "result": "stimulated proliferation"}, {"measurement": "sensitivity to parent drug relative to conjugate", "setting": "PC3 prostate cancer line", "result": 3, "unit": "fold"}, {"measurement": "stimulation of proliferation", "setting": "22Rv1 cells [4]; 100 uM pulse", "result": 10, "unit": "%"}]}]}
